Measurements taken from publication PMC3392537 (Neuropharmacology, 2012).

Key:
[1] = target: α3(2)β4(2)α5 (β4–6–α3 concatamer + α5) (Homo sapiens, UniProt P30926+P32297); assay: two-electrode voltage clamp, Xenopus oocytes; type: cell-based
rat α3β4 = rat α3β4 (Rattus norvegicus, UniProt P04757+P12392); assay: two-electrode voltage clamp, Xenopus oocytes; type: cell-based
Chain of rat α3β4 (P04757 26-499): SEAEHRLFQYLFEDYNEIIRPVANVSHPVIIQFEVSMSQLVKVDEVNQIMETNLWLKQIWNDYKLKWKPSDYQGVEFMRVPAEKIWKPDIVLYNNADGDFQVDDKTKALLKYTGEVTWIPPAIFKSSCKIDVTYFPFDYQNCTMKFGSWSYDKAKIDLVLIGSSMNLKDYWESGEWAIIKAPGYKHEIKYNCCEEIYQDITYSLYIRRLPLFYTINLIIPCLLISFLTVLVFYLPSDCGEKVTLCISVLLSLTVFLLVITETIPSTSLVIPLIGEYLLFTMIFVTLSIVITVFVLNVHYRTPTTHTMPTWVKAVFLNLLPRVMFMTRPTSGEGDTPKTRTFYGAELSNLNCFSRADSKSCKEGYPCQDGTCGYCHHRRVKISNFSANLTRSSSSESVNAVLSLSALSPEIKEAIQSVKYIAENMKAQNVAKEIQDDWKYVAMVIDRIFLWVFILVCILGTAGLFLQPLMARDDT
Chain of rat α3β4 (P12392 21-495): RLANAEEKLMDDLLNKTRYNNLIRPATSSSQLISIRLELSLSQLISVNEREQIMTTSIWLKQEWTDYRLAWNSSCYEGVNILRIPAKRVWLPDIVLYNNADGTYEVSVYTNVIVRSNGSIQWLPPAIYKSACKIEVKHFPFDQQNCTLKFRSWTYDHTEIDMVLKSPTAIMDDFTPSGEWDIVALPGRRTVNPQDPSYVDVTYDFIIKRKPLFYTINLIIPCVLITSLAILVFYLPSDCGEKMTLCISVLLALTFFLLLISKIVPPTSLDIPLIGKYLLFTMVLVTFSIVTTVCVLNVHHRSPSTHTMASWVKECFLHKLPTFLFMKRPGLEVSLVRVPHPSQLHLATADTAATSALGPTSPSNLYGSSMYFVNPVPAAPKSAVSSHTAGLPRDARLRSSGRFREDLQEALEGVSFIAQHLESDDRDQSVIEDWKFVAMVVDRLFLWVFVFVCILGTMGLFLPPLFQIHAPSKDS

Chain of α3(2)β4(2)α5 (β4–6–α3 concatamer + α5) (P32297 32-505): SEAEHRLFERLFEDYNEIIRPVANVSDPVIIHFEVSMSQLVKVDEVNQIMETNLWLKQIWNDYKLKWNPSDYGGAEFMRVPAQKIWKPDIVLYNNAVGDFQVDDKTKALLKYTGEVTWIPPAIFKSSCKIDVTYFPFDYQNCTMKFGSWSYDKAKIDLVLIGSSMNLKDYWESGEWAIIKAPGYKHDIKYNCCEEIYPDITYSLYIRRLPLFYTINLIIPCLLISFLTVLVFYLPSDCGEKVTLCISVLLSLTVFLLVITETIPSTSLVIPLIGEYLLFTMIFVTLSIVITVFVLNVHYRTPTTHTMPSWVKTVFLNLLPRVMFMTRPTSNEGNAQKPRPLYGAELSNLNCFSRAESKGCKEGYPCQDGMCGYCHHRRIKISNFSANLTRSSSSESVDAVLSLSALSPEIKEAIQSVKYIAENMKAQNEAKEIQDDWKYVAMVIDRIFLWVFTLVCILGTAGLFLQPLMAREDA
Chain of α3(2)β4(2)α5 (β4–6–α3 concatamer + α5) (P30926 22-498): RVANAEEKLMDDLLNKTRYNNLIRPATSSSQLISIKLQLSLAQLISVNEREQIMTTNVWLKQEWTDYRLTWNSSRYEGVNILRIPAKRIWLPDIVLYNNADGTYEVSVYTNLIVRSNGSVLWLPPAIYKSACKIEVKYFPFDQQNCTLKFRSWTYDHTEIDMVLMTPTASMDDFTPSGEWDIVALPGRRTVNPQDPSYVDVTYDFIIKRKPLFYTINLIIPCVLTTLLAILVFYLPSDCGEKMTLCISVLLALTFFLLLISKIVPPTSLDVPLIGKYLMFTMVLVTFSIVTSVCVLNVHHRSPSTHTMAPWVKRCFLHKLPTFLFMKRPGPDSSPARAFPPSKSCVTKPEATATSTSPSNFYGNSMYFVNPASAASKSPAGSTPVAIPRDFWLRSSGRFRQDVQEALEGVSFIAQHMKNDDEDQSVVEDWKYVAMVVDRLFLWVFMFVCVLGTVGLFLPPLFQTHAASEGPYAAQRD
Chain of α3(2)β4(2)α5 (β4–6–α3 concatamer + α5) (P30532 23-468 partner): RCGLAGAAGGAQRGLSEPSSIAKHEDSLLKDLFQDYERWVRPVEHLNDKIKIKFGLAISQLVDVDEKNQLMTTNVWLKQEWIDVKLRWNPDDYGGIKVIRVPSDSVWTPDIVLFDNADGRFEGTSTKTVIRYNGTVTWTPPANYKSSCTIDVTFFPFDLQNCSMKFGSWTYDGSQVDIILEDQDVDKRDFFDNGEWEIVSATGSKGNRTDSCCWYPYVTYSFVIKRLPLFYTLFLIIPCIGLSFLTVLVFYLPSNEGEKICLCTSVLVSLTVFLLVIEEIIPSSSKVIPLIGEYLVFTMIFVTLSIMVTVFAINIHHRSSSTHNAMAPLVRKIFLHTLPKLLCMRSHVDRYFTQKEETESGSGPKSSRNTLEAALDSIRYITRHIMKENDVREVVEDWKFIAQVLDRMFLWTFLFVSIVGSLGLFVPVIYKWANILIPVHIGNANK

IC50 [1] | SMILES | EC50 (rat α3β4)
9.17 ± 1.08 µM | COc1ccc(C=C2CCCN=C2c2cccnc2)c(OC)c1 [GTS-21, 3-(2,4dimethoxybenzylidene)anabaseine] | 
 | O=c1cccc2n1C[C@@H]1CNC[C@H]2C1 [cytisine] | 520 ± 50 µM
 | c1cnc2cc3c(cc2n1)C1CNCC3C1 [varenicline] | 28 ± 3.2 µM
